Source: patent publication US11034650B2, “Compounds useful for treating a Mannheimia haemolytica or Histophilus somni infection” (Intervet Inc., priority 2016, dated 2021)
≈ marks a conversion by molar mass, not a printed value.

What was measured:
Assay type in all cases: cell-based
[1] = tested on: Mannheimia haemolytica MH 6357 (M7/2, reference strain, cattle infection strain); assay: MIC, broth-microdilution (CLSI VET01-A4), strain MH 6357; details: Mannheimia haemolytica strain MH 6357, broth-microdilution; unit assumed
Summary of the method: (§1)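 Growth inhibition is scored visually on a doubling dilution series. The reported MIC corresponds to the lowest concentration free of turbidity, with results assessed under CLSI VET01-S3.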

[2] = tested on: Mannheimia haemolytica MH 6374 (ATCC 33396, reference strain); assay: MIC, broth-microdilution (CLSI VET01-A4), strain MH 6374; details: Mannheimia haemolytica strain MH 6374, broth-microdilution; unit assumed
Summary of the method: as §1

[3] = tested on: Mannheimia haemolytica MH 10720 (154, BRD field isolate); assay: MIC, broth-microdilution (CLSI VET01-A4), strain MH 10720; details: Mannheimia haemolytica strain MH 10720, broth-microdilution; unit assumed
Summary of the method: as §1

[4] = tested on: Mannheimia haemolytica MH 12587 (1071, BRD field isolate, macrolide-resistance: erm+, E+); assay: MIC, broth-microdilution (CLSI VET01-A4), strain MH 12587; details: Mannheimia haemolytica strain MH 12587, broth-microdilution; unit assumed
Summary of the method: as §1

[5] = tested on: Mannheimia haemolytica MH 13065 (XB0446-6003.9, BRD field isolate); assay: MIC, broth-microdilution (CLSI VET01-A4), strain MH 13065; details: Mannheimia haemolytica strain MH 13065, broth-microdilution; unit assumed
Summary of the method: as §1

[6] = tested on: Mannheimia haemolytica MH 13093 (XB0472-6014.1, BRD field isolate); assay: MIC, broth-microdilution (CLSI VET01-A4), strain MH 13093; details: Mannheimia haemolytica strain MH 13093, broth-microdilution; unit assumed
Summary of the method: as §1

[7] = tested on: Pasteurella multocida PM 6267 (P 2225 (L386), reference strain, mouse infection strain); assay: MIC, broth-microdilution (CLSI VET01-A4), strain PM 6267; details: Pasteurella multocida strain PM 6267, broth-microdilution; unit assumed
Summary of the method: as §1

[8] = tested on: Pasteurella multocida PM 6391 (ATCC 43137, reference strain); assay: MIC, broth-microdilution (CLSI VET01-A4), strain PM 6391; details: Pasteurella multocida strain PM 6391, broth-microdilution; unit assumed
Summary of the method: as §1

[9] = tested on: Pasteurella multocida PM 10775 (080130003051, BRD field isolate); assay: MIC, broth-microdilution (CLSI VET01-A4), strain PM 10775; details: Pasteurella multocida strain PM 10775, broth-microdilution; unit assumed
Summary of the method: as §1

[10] = tested on: Pasteurella multocida PM 12080 (IV102277-0093, BRD field isolate); assay: MIC, broth-microdilution (CLSI VET01-A4), strain PM 12080; details: Pasteurella multocida strain PM 12080, broth-microdilution; unit assumed
Summary of the method: as §1

MIC PM 6267 [7] | MIC PM 6391 [8] | MIC PM 10775 [9] | MIC PM 12080 [10] | SMILES | MIC MH 6357 [1] | MIC MH 6374 [2] | MIC MH 10720 [3] | MIC MH 12587 [4] | MIC MH 13065 [5] | MIC MH 13093 [6]
25 µg/mL (≈ 54.8 µM) | 0.2 µg/mL (≈ 0.438 µM) | 1.6 µg/mL (≈ 3.5 µM) | 0.8 µg/mL (≈ 1.75 µM) | CC(=O)C(NC(=O)c1ccc(C#Cc2ccc(CNCc3cccnc3)cc2)cc1)C(=O)NO (stereo not shown) [Compound 407] | 3.1 µg/mL (≈ 6.79 µM) | 6.3 µg/mL (≈ 13.8 µM) | 6.3 µg/mL (≈ 13.8 µM) | 1.6 µg/mL (≈ 3.5 µM) | 6.3 µg/mL (≈ 13.8 µM) | 6.3 µg/mL (≈ 13.8 µM)
6.3 µg/mL (≈ 12.8 µM) | ≤ 0.1 µg/mL | 0.8 µg/mL (≈ 1.63 µM) | 0.4 µg/mL (≈ 0.815 µM) | CC(=O)C(NC(=O)c1ccc(C#Cc2ccc(CNCc3ccnc(Cl)c3)cc2)cc1)C(=O)NO (stereo not shown) [Compound 408] | 1.6 µg/mL (≈ 3.26 µM) | 1.6 µg/mL (≈ 3.26 µM) | 1.6 µg/mL (≈ 3.26 µM) | 0.4 µg/mL (≈ 0.815 µM) | 1.6 µg/mL (≈ 3.26 µM) | 1.6 µg/mL (≈ 3.26 µM)
6.3 µg/mL (≈ 14.1 µM) | ≤ 0.1 µg/mL | 0.8 µg/mL (≈ 1.8 µM) | 0.4 µg/mL (≈ 0.898 µM) | CC(=O)C(NC(=O)c1ccc(C#Cc2ccc(CNCc3ccco3)cc2)cc1)C(=O)NO (stereo not shown) [Compound 410] | 0.8 µg/mL (≈ 1.8 µM) | 1.6 µg/mL (≈ 3.59 µM) | 1.6 µg/mL (≈ 3.59 µM) | 0.4 µg/mL (≈ 0.898 µM) | 1.6 µg/mL (≈ 3.59 µM) | 1.6 µg/mL (≈ 3.59 µM)
3.1 µg/mL (≈ 6.72 µM) | ≤ 0.1 µg/mL | 0.4 µg/mL (≈ 0.867 µM) | 0.2 µg/mL (≈ 0.433 µM) | CC(=O)C(NC(=O)c1ccc(C#Cc2ccc(CNCc3cccs3)cc2)cc1)C(=O)NO (stereo not shown) [Compound 411] | 0.4 µg/mL (≈ 0.867 µM) | 0.8 µg/mL (≈ 1.73 µM) | 0.8 µg/mL (≈ 1.73 µM) | 0.2 µg/mL (≈ 0.433 µM) | 0.8 µg/mL (≈ 1.73 µM) | 0.8 µg/mL (≈ 1.73 µM)
6.3 µg/mL (≈ 13.4 µM) | ≤ 0.1 µg/mL | 0.4 µg/mL (≈ 0.852 µM) | 0.2 µg/mL (≈ 0.426 µM) | CC(=O)[C@H](NC(=O)c1ccc(C#Cc2ccc(CNCc3ccc(C)cc3)cc2)cc1)C(=O)NO [Compound 412] | 1.6 µg/mL (≈ 3.41 µM) | 1.6 µg/mL (≈ 3.41 µM) | 1.6 µg/mL (≈ 3.41 µM) | 0.4 µg/mL (≈ 0.852 µM) | 1.6 µg/mL (≈ 3.41 µM) | 1.6 µg/mL (≈ 3.41 µM)
50 µg/mL (≈ 111 µM) | 0.2 µg/mL (≈ 0.445 µM) | 0.4 µg/mL (≈ 0.89 µM) | 0.4 µg/mL (≈ 0.89 µM) | CC(=O)C(NC(=O)c1ccc(C#Cc2ccc(CNCC3CCCO3)cc2)cc1)C(=O)NO (stereo not shown) [Compound 413] | 12.5 µg/mL (≈ 27.8 µM) | 12.5 µg/mL (≈ 27.8 µM) | 3.1 µg/mL (≈ 6.9 µM) | 6.3 µg/mL (≈ 14 µM) | 6.3 µg/mL (≈ 14 µM) | 25 µg/mL (≈ 55.6 µM)
6.3 µg/mL (≈ 13.6 µM) | ≤ 0.1 µg/mL | 0.4 µg/mL (≈ 0.865 µM) | ≤ 0.1 µg/mL | CC(=O)C(NC(=O)c1ccc(C#Cc2ccc(CNCc3nccs3)cc2)cc1)C(=O)NO (stereo not shown) [Compound 414] | 0.8 µg/mL (≈ 1.73 µM) | 1.6 µg/mL (≈ 3.46 µM) | 0.8 µg/mL (≈ 1.73 µM) | 0.4 µg/mL (≈ 0.865 µM) | 0.8 µg/mL (≈ 1.73 µM) | 1.6 µg/mL (≈ 3.46 µM)
1.6 µg/mL (≈ 3.3 µM) | ≤ 0.1 µg/mL | ≤ 0.1 µg/mL | ≤ 0.1 µg/mL | CON=C(C)C(NC(=O)c1ccc(C#Cc2ccc(CNCc3ccncc3)cc2)cc1)C(=O)NO (stereo not shown) [Compound 415] | 0.4 µg/mL (≈ 0.824 µM) | 0.8 µg/mL (≈ 1.65 µM) | 0.4 µg/mL (≈ 0.824 µM) | 0.2 µg/mL (≈ 0.412 µM) | 0.4 µg/mL (≈ 0.824 µM) | 0.4 µg/mL (≈ 0.824 µM)

The next lines start with the molecule.

SMILES | MIC PM 6267 [7] | MIC PM 6391 [8] | MIC PM 10775 [9] | MIC PM 12080 [10] | MIC MH 6357 [1] | MIC MH 6374 [2] | MIC MH 10720 [3] | MIC MH 12587 [4] | MIC MH 13065 [5] | MIC MH 13093 [6]
CC(=O)C(NC(=O)c1ccc(C#Cc2ccc(CNCc3ccncc3)cc2)cc1)C(=O)NO (stereo not shown) [Compound 402] | 50 µg/mL (≈ 110 µM) | 0.8 µg/mL (≈ 1.75 µM) | 3.1 µg/mL (≈ 6.79 µM) | 1.6 µg/mL (≈ 3.5 µM) | 6.3 µg/mL (≈ 13.8 µM) | 12.5 µg/mL (≈ 27.4 µM) | 6.3 µg/mL (≈ 13.8 µM) | 1.6 µg/mL (≈ 3.5 µM) | 6.3 µg/mL (≈ 13.8 µM) | 6.3 µg/mL (≈ 13.8 µM)
CC(=O)C(NC(=O)c1ccc(C#Cc2ccc(CN3CCCC3)cc2)cc1)C(=O)NO (stereo not shown) [Compound 403] | 100 µg/mL (≈ 238 µM) | 0.8 µg/mL (≈ 1.91 µM) | 6.3 µg/mL (≈ 15 µM) | 3.1 µg/mL (≈ 7.39 µM) | 25 µg/mL (≈ 59.6 µM) | 12.5 µg/mL (≈ 29.8 µM) | 12.5 µg/mL (≈ 29.8 µM) | 6.3 µg/mL (≈ 15 µM) | 25 µg/mL (≈ 59.6 µM) | 25 µg/mL (≈ 59.6 µM)
CC(=O)C(NC(=O)c1ccc(C#Cc2ccc(CNC3CCC3)cc2)cc1)C(=O)NO (stereo not shown) [Compound 404] | 25 µg/mL (≈ 59.6 µM) | 0.4 µg/mL (≈ 0.954 µM) | 3.1 µg/mL (≈ 7.39 µM) | 1.6 µg/mL (≈ 3.81 µM) | 12.5 µg/mL (≈ 29.8 µM) | 12.5 µg/mL (≈ 29.8 µM) | 6.3 µg/mL (≈ 15 µM) | 3.1 µg/mL (≈ 7.39 µM) | 25 µg/mL (≈ 59.6 µM) | 50 µg/mL (≈ 119 µM)
CC(=O)C(NC(=O)c1ccc(C#Cc2ccc(CNC3CCCC3)cc2)cc1)C(=O)NO (stereo not shown) [Compound 405] | 100 µg/mL (≈ 231 µM) | 0.8 µg/mL (≈ 1.85 µM) | 3.1 µg/mL (≈ 7.15 µM) | 0.8 µg/mL (≈ 1.85 µM) | 25 µg/mL (≈ 57.7 µM) | 50 µg/mL (≈ 115 µM) | 6.3 µg/mL (≈ 14.5 µM) | 12.5 µg/mL (≈ 28.8 µM) | 0.8 µg/mL (≈ 1.85 µM) | 25 µg/mL (≈ 57.7 µM)
CCCNCc1ccc(C#Cc2ccc(C(=O)N[C@@H](C(C)=O)C(=O)NO)cc2)cc1 [Compound 406] | 25 µg/mL (≈ 61.4 µM) | 0.2 µg/mL (≈ 0.491 µM) | 3.1 µg/mL (≈ 7.61 µM) | 3.1 µg/mL (≈ 7.61 µM) | 12.5 µg/mL (≈ 30.7 µM) | 25 µg/mL (≈ 61.4 µM) | 6.3 µg/mL (≈ 15.5 µM) | 1.6 µg/mL (≈ 3.93 µM) | 25 µg/mL (≈ 61.4 µM) | 12.5 µg/mL (≈ 30.7 µM)
